From US20220411362A1, “DITERPENOID COMPOUNDS THAT ACT ON PROTEIN KINASE C (PKC)” (K-Gen, Inc., priority 2019, published 2022)
Like-named read-outs stand apart in the source and are kept apart here.

Tests used:
C1b domain of human PKCδ = target: T1, C1b domain of human PKCδ (Homo sapiens, UniProt Q05655); assay: Competitive 3H-PDBu binding to C1b domain of PKCδ; details: 3H-PDBu competition
T1 construct: Genes encoding C1b domains of human PKCα, δ, ε, θ, and PKD1 (PKCμ) were synthesized; made in house; host or cells: E. coli BL21(DE3)
Protocol: (§1) Compounds described in this disclosure were tested for binding affinity to C1b domain of PKC isoforms. Compound binding affinity to C1b domain of PKC isoforms was derived from competitive binding assay using radioactive tracer ^3H-PDBu and recombinant GST-C1b or full-length of human PKC proteins based on modified procedures from Methods in Molecular Biology, vol.
(§2) Genes encoding C1b domains of human PKCα, δ, ε, θ, and PKD1 (PKCμ) were synthesized and inserted into pGEX-2TK or pGEX-4T1 vectors for expression and production of GST-C1b proteins in E. coli BL21(DE3) via IPTG induction. The target proteins were purified by glutathione sepharose 4B and followed by ion exchange chromatography if needed to achieve purity >70%. Aliquots of the purified proteins were stored at −80 degree for binding assay (storage buffer: 20 mM Tris pH 8.0, 200 mM NaCl, 10% glycerol, 1 mM DTT).
(§3) The plate was incubated at 37° C. on a shaker at 300 rpm for 10 minutes and then put on ice for 20 minutes. […] The bottom of the filter plate was sealed and 50 μL of MicroScint-20 (PerkinElmer) cocktail was added to each well. ^3H-PDBu trapped in each well was counted using PerkinElmer MicroBeta2 Reader. Data were analyzed using GraphPad Prism5 with the model “log(inhibitor) vs. response-variable slope” to fit the IC50, and then IC50 was transformed to Ki using Cheng-Prusoff equation: Ki=IC50/(1+added radio ligand/Kd). Kd is the binding affinity of each protein preparation to ^3H-PDBu, determined experimentally.

C1b domain of human PKCα = target: T2, C1b domain of human PKCα (Homo sapiens, UniProt P17252); assay: biochemical; format: binding; details: 3H-PDBu competition; for Ki: Ki PKCα
T2 construct: Genes encoding C1b domains of human PKCα, δ, ε, θ, and PKD1 (PKCμ) were synthesized; made in house; host or cells: E. coli BL21(DE3)
Protocol: as §1, §2
The plate was incubated at 37° C. on a shaker at 300 rpm for 10 minutes and then put on ice for 20 minutes. […] The bottom of the filter plate was sealed and 50 μL of MicroScint-20 (PerkinElmer) cocktail was added to each well. ^3H-PDBu trapped in each well was counted using PerkinElmer MicroBeta2 Reader. […] Kd is the binding affinity of each protein preparation to ^3H-PDBu, determined experimentally.

[1] = target: T3, C1b domain of human PKD1 (PKCμ) (Homo sapiens, UniProt Q15139); assay: biochemical; format: binding
T3 construct: Genes encoding C1b domains of human PKCα, δ, ε, θ, and PKD1 (PKCμ) were synthesized; made in house; host or cells: E. coli BL21(DE3)
T3 sequence (Q15139 270-320 limits assumed): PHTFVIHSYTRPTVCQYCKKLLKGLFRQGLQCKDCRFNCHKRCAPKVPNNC
Protocol: as §1, §2, §3

C1b domain of human PKCθ = target: T4, C1b domain of human PKCθ (Homo sapiens, UniProt Q04759); assay: Competitive 3H-PDBu binding to C1b domain of PKCθ
T4 construct: Genes encoding C1b domains of human PKCα, δ, ε, θ, and PKD1 (PKCμ) were synthesized; made in house; host or cells: E. coli BL21(DE3)
T4 sequence (Q04759 231-281 limits assumed): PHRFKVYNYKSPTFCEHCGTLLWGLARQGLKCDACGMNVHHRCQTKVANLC
Protocol: as §1, §2, §3

[2] = test system: A549 non-small cell lung cancer cell line; assay: Proliferation of A549 (CellTiter Glo); format: cell-based; details: read-out: IC50 μM (A549 Cell Line)
Protocol: The diterpenoid compounds were tested in A549, a non-small cell lung cancer cell line harboring a K-Ras activating mutation. Briefly, A549 cells at a density of 1,000 cells/well were seeded in 96-well plates and incubated at 37° C. for 24 hours. A series of different concentrations of compound stocks (500×) were prepared by 3-fold serial dilution in DMSO. These compounds were further diluted in culture media and then added to cells so that the final DMSO concentration was not exceeding 0.25%. After 96 hours of incubation, 50 μL of CellTiter Glo reagent (Promega) was added to each well and luminescence was measured after 10 minutes using EnVision (PerkinElmer). Luminescence from cells treated with DMSO alone was set as Max and % of inhibition was calculated as follows: Inhibition %=(Max−Sample value)/Max×100. Data was analyzed using XL-fit software (ID Business Solutions Ltd.) and IC50, relative IC50, and % of top inhibition was calculated. Some of the compounds in this disclosure were very potent in blocking proliferation of A549 lung cancer cells at low nM range. In addition, potency of inhibiting A549 proliferation correlated well with its binding affinity to PKCs for this series of compounds. In other words, higher affinity binders had stronger inhibitory effects on A549 proliferation. This further support the notion that activation, rather than inhibition, of certain PKC isoforms is required to block proliferation of cancer cells, some of which may harbor K-Ras mutations. This is in sharp contrast to previous literature and common belief that inhibition of PKC is necessary to block cancer cell growth (Kang, 2014, New Journal of Science, 2014:1-36). Data presented here is in agreement with recent findings that many loss-of-function but not gain-of-function mutations of PKC isoforms have been identified in many human cancers (Antal et al., 2015, Cell, 160:489-502).

C1b domain of human PKCε = target: T5, C1b domain of human PKCε (Homo sapiens, UniProt Q02156); assay: Competitive 3H-PDBu binding to C1b domain of PKCε
T5 construct: Genes encoding C1b domains of human PKCα, δ, ε, θ, and PKD1 (PKCμ) were synthesized; made in house; host or cells: E. coli BL21(DE3)
Protocol: as §1, §2, §3

T5 sequence (Q02156 242-292 limits assumed): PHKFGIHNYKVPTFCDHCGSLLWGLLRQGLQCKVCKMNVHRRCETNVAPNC
T1 sequence (Q05655 230-280 limits assumed): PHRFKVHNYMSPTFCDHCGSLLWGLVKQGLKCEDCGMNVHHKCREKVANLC

| Compound | Ki (C1b domain of human PKCδ; Ki PKCδ) [µM] | Ki (C1b domain of human PKCα) [µM] | Ki [1] [µM] | Ki (C1b domain of human PKCθ) [µM] | IC50 ([2]; Homo sapiens, A549, 96 h) [µM] | Ki (C1b domain of human PKCε) [µM] | Ki PKCα (C1b domain of human PKCα) | Ki (C1b domain of human PKCδ; read-out: Ki PKCδ) [µM] | Ki ([1]; C1b domain of human PKD1 (PKCμ), 3H-PDBu competition, read-out: Ki PKD1/PKCμ) [µM] | Ki (C1b domain of human PKCθ; C1b domain of human PKCθ, 3H-PDBu competition, read-out: Ki PKCθ) [µM] | IC50 ([2]; A549, 96 hours incubation, CellTiter Glo) [µM] | Ki (C1b domain of human PKCε; C1b domain of human PKCε, 3H-PDBu competition, read-out: Ki PKCε) [µM] |
| --- | --- | --- | --- | --- | --- | --- | --- | --- | --- | --- | --- | --- |
| CC1=C[C@H]2[C@@]3(O)[C@H](C)C[C@]4(OC(=O)[C@@H](N)CCCCCCc5ccc(C(F)F)cc5)[C@H]([C@@H]3C=C(CO)C[C@]2(O)C1=O)C4(C)C [Compound K101-C137002] | 0.001 to 0.03 | 0.2 to 0.4 | 0.005 to 0.01 | 0.001 to 0.03 | 0.1 to 0.2 | 0.03 to 0.06 |  |  |  |  |  |  |
| CC1=C[C@H]2[C@@]3(O)[C@H](C)C[C@]4(OC(=O)[C@H](N)CCCCCCCCc5ccccc5)[C@H]([C@@H]3C=C(CO)C[C@]2(O)C1=O)C4(C)C [Compound K101-C136101] | 0.001 to 0.03 | 0.4 to 0.8 | 0.005 to 0.01 | 0.001 to 0.03 | 0.01 to 0.03 | 0.001 to 0.03 |  |  |  |  |  |  |
| CC1=C[C@H]2[C@@]3(O)[C@H](C)C[C@]4(OC(=O)[C@@H](N)CCCCCCc5ccc(C(F)(F)F)cc5)[C@H]([C@@H]3C=C(CO)C[C@]2(O)C1=O)C4(C)C [Compound K101-C135902] | 0.005 to 0.01 |  | 0.005 to 0.01 | 0.001 to 0.03 | 0.01 to 0.03 | 0.001 to 0.03 | E (E=>60 nM and ≤10 nM) |  |  |  |  |  |
| CC1=C[C@H]2[C@@]3(O)[C@H](C)C[C@]4(OC(=O)[C@H](N)CCCCCCc5ccc(C(F)F)cc5)[C@H]([C@@H]3C=C(CO)C[C@]2(O)C1=O)C4(C)C [Compound K101-C137001] | 0.001 to 0.03 | 0.8 to 1 | 0.001 to 0.03 | 0.03 to 0.06 | 0.1 to 0.2 | 0.03 to 0.06 |  |  |  |  |  |  |
| CC1=C[C@H]2[C@@]3(O)[C@H](C)C[C@]4(OC(=O)[C@H](N)CCCCCCc5ccc(C(F)(F)F)cc5)[C@H]([C@@H]3C=C(CO)C[C@]2(O)C1=O)C4(C)C [Compound K101-C135901] | 0.03 to 0.06 | 1 to 2 | 0.001 to 0.03 | 0.03 to 0.06 | 0.06 to 0.1 |  |  |  |  |  |  |  |
| CC1=C[C@H]2[C@@]3(O)[C@H](C)C[C@]4(OC(=O)/C=C/c5ccc(C(F)(F)F)cc5)[C@H]([C@@H]3C=C(CO)C[C@]2(O)C1=O)C4(C)C [Compound K101-C1313] | 0.001 to 0.03 | 0.2 to 0.4 | < 0.005 | 0.001 to 0.03 | 0.06 to 0.1 | 0.001 to 0.03 |  |  |  |  |  |  |
| CC1=C[C@H]2[C@@]3(O)[C@H](C)C[C@]4(OC(=O)C5CC6(C5)CN(C(=O)OC(C)(C)C)C6)[C@H]([C@@H]3C=C(CO)C[C@]2(O)C1=O)C4(C)C [Compound K101-C1311] | 0.001 to 0.03 | 0.4 to 0.8 | < 0.005 | 0.001 to 0.03 | 0.1 to 0.2 | 0.03 to 0.06 |  |  |  |  |  |  |
| CC1=C[C@H]2[C@@]3(O)[C@H](C)C[C@]4(OC(=O)[C@H](N)Cc5c[nH]c6ccccc56)[C@H]([C@@H]3C=C(CO)C[C@]2(O)C1=O)C4(C)C [Compound K101-C1341] | 0.03 to 0.06 | 1 to 2 | 0.001 to 0.03 |  | 10 to 30 |  |  |  |  |  |  |  |
| CCCCCCCCCCCCCC(=O)O[C@@H]1[C@@H](C)[C@@]2(O)[C@@H](C=C(CO)C[C@]3(O)C(=O)C(C)=C[C@@H]23)[C@@H]2C(C)(C)[C@]12OC(C)=O [Compound K103, 12-O-Tetradecanoylphorbol-13-acetate, reference compound] |  |  |  |  |  |  |  | < 0.005 | < 0.005 | < 0.005 | < 0.001 | < 0.005 |
| CC1=C[C@H]2[C@@]3(O)[C@H](C)C[C@]4(OC(=O)CCc5cnn(C)c5)[C@H]([C@@H]3C=C(CO)C[C@]2(O)C1=O)C4(C)C [Compound K101-C1323] | 0.2 to 0.4 | > 8 | 0.1 to 0.2 |  | 2 to 5 |  |  |  |  |  |  |  |
